{"source": "patent US12221494B2", "about": "“Short synthetic peptides and their uses for treating retinal degenerative diseases and/or tissue injuries” (MacKay Memorial Hospital, priority 2019, dated 2025)", "key": {"survivin mRNA": {"test_system": "survivin mRNA", "assay": "Real-time qPCR of survivin mRNA in C2C12 cells", "type": "cell-based, mouse", "details": "C2C12 cells in low serum media, 20 μM peptide, 6 h", "protocol": "(§1) Total RNA was extracted from cells using TRIzol (Invitrogen). Synthesis of cDNA was performed with 1 μg of total RNA at 50° C. for 50 min using oligo(dT) primers and reverse transcriptase (Superscript III; Invitrogen). Briefly, quantification of cDNA was performed in the LightCycler (Roche, Mannheim, Germany) using the DNA Master SYBR Green I kit (Roche) with the following cycling conditions: initial denaturation at 95° C. for 10 min, followed by 40 cycles at 95° C. for 10 s, 60° C. for 10 s, and 72° C. for 10 s and a 5-min terminal incubation at 72° C. The data were calculated with AACt. The expression was then normalized against the expression of glyceraldehyde-3-phosphate dehydrogenase (GAPDH). The PCR primers were mouse Survivin sense, 5′-[…]-3′ (SEQ ID NO: 27), anti-sense, 5′-[…]-3′ (SEQ ID NO: 28) (accession number: NM_001012273.1; PCR product: 136 bp); mouse GAPDH sense, 5′-[…]-3′ (SEQ ID NO: 29), anti-sense, 5′-[…]-3′ (SEQ ID NO: 30) (NM_001289726.1; 149 bp). For analysis rabbit inflammatory gene expression, The PCR primers were rabbit TNF-αsense, 5′-[…]-3′ (SEQ ID NO: 31), anti-sense, 5′-[…]-3′ (SEQ ID NO: 32) (accession number: NM 001082263.1); rabbit IL-1βsense, 5′-[…]-3′(SEQ ID NO: 33), anti-sense, 5′-[…]-3′ (SEQ ID NO: 34) (NM 001082201.1); rabbit GAPDH sense, 5′-[…]-3′ (SEQ ID NO: 35), anti-sense, 5′-[…]-3′ (SEQ ID NO: 36) (accession number:NM 001082253.1). The cycle threshold (Ct) values of the PCR product and a GAPDH (Glyceraldehyde 3-phosphate dehydrogenase) control mRNA were used to calculate relative quantities of mRNA.\nSimilar to the approach in Example 1.2.1, the expression level of survivin mRNA in C2C12 cells was used as an indicator for the function of the 6-mer variants in Tables 3 to 5. Briefly, C2C12 cells in low serum media were treated with 20 μM the 6-mer variants for 6 h. […] The results also confirmed that alanine substation at the glutamic acid (E) residues would severely impair the 6-mer activity."}, "[1]": {"test_system": "Sprague-Dawley rats, retinal ischemia/reperfusion (I/R) injury", "assay": "TUNEL staining of I/R-injured rat retina (20 h)", "type": "in vivo", "details": "for Number of TUNEL-positive cells in retina: subconjunctival injection 1 mM 4 h before I/R, 20 hours after I/R injury, Vehicle + I/R 27.2 ± 2.7; for I/R-induced retinal cell apoptosis (TUNEL staining), in words: subconjunctival injection prior to I/R, 20 h reperfusion", "protocol": "Experimental procedures were approved by the Mackay Memorial Hospital Review Board (Taiwan, R.O.C.). All surgeries were performed under aseptic conditions. Adult 10-week-old male Sprague-Dawley rats (initial body weight=312±11 g) were anesthetized by an intraperitoneal injection of xylazine (10 mg/kg). Peptide was dissolved in 0.85% normal saline to 1 mM and delivered by the subconjunctival injection of 100 μL peptide through a 31-Gneedle with a micro-syringe before the induction of I/R. Normal saline was as a vehicle control. Rat I/R was performed after peptide or vehicle injection for 4 h. Pupils were dilated with 0.5% tropicamide and 0.5% phenylephrine. Body temperature was maintained at 37° C. using a heating blanket After dilation of the pupil, the anterior chamber of the right eye was cannulated with a 27-gauge needle connected to a physiological saline reservoir. The intraocular pressure (IOP) was raised to 110 mmHg by keeping the reservoir at 150 cm above the eye, and retinal ischemia was confirmed by observing whitening of the iris and the loss of the red reflex of the retina. After 90 min of ischemia, the cannulating needle was withdrawn and the IOP was returned to normal pressure, resulting in recovery of the blood supply from the retinal artery and reperfusion injury induced. The reperfusion was evident by the return of the red reflex. Corneal analgesia was achieved using 1 or 2 drops of 0.4% oxybuprocaine hydrochloride, and Ofloxacin ophthalmic gel (0.3%) was applied topically to the eye before and after the procedure. Only the right eye was used in all experiments. A sham procedure was performed at left eye served as an intra-animal control.\nAfter I/R for 20 h, rats (n=6 in each group) were euthanized by an overdose of pentobarbital. Enucleated eyeballs were fixed in 4% PFA for 24 h at 4° C. Fixed retinal tissues were embedded in paraffin. To identify apoptosis of retinal cells, 5 μm sections thick cut through the optic disc, de-paraffinized, rehydrated, incubatedwith 20 μg/mL proteinase K for 10 min, and immunofluorescence staining of apoptotic cells was performed using a terminal deoxynucleotidyl transferase(TdT)-mediated dUTP nick-end labeling (TUNEL)-based kit (Roche Molecular Biochemicals, Indianapolis, IN) according to the manufacturer's instructions. Nuclei were located by counterstaining with Hoechst 33258 for 7 min Sections were observed under an epifluorescence microscope (Zeiss Axioplan 2 imaging; Zeiss, Oberkochen, Germany) equipped with a charge-coupled device (CCD) camera (Zeiss AxioCam HRm, Zeiss) (×400, 6 fields/sample), and quantification was performed using Axiovert software (Zeiss AxioVision Release 4.8.2, Zeiss). Three sections per eye were averaged and the mean of six eyes was recorded as the representative value for each group.\nIn this example, the neuroprotective effect of the 6-mer variant peptides on neural retina cells and retinal capillary system was investigated using a rat model of I/R injury described in the “Material and Methods” section. Briefly, 6-mer variant peptide (1 mM, 120 μl) was injected into the subconjunctival space of Sprague-Dawley rats for 4 h before the induction of I/R. Then, I/R injury was induced in rat retinas by increasing the intraocular pressure (IOP) in the eye to 110 mmHg for 90 min, followed by 20 h of reperfusion. Subsequently, the level of retinal cell apoptosis was evaluated using TUNEL staining. In addition, the retinal morphology was analyzed with H&E staining 14 days after the I/R injury. Results are summarized in FIGS. 6 to 10, and Tables 6 to 9."}, "[2]": {"test_system": "C57BL/6 mice, dry eye induced in controlled environment chamber (CEC)", "assay": "Dry eye animal model, corneal fluorescein staining", "type": "in vivo, mouse", "details": "mice 14 days in CEC, then treatment for 4 days", "protocol": "Dry eyes were induced by placing mice in a controlled environment chamber (CEC) for 14 days in accordance with procedures previously described by Barabino et al (IVOS (2005) 46(8), 2766-2771). Mice placed in the CEC were exposed to a condition, in which relative humidity (RH) was maintained at <25%, temperature at 20-22° C., and airflow at about 15 L/min, for 12 hours per day. Control mice were kept in a normal environment (RH>50%, no air flow, temperature of 20-22° C.) for the same duration.\nA common artificial tear formulation, 1% carboxymethylcelllulose (CMC) dissolved in balanced salt solution (BSS) was used as the peptide vehicle. Peptide (100 μM, about 0.7 μg peptide in 10 μl eye drop used for treating one eye) or 1% CMC vehicle was topically administered to eyes three times a day. To test whether the present synthetic peptide could exert any therapeutic action on dry eyes, mice were housed at CEC for 14 days without topical treatment, and then were treated with the present peptide for 4 days.\nAnimals were anesthetized by an intraperitoneal injection of a mixture of zoletil (6 mg/kg) and xylazine (3 mg/kg). Corneal epithelial injury was determined by staining with topical fluorescein (Fluor-I-Strip, Ayerst Laboratories, Philadelphia, PA). Corneal fluorescein staining was examined with a slit-lamp biomicroscope under cobalt blue light and photographed with a digital camera. Dye staining of the cornea was scored in a blinded manner as follows: score 0 for no punctuate staining; score 1 when less than one third of the cornea was stained; score 2 when two thirds or less was stained; and score 3 when more than two thirds was stained (Horwath-Winter J 2013).\nBriefly, mice were housed at controlled environment chamber (CEC) for 14 days (set as Day 0) to induce corneal surface disruption. Corneal fluorescein staining was used to estimate the corneal surface injury and the animal with a staining score of 2 (after mice placed at CEC for 14 days) was subjected to peptide treatment. The 6-mer variant peptide formulation for the treatment of DED was described in Methods. […]"}, "IL-1β mRNA": {"test_system": "IL-1β mRNA", "assay": "Hyperosmotic stress-induced IL-1β gene expression in rabbit corneal epithelial cells (qPCR)", "type": "cell-based", "details": "20 μM peptide 6 h, then hyperosmotic medium (463 mOsM) 3 h, solvent 4.5-fold", "protocol": "as §1\n(§2) Limbal stem epithelial cells (LSEC) were isolated from 6-month-old New Zealand white rabbits and continuously cultivated for 14 days byDMEM/F-12basalmedium based cell-suspension culture to achieve corneal-liked epithelial cell differentiation as previously described (Ho et al., Stem Cells. 2013; 31:1775). […] After 3 h, quantitative real-time PCR was used to estimate HOP-induced Tumor necrosis factor (TNF)-α and nterleukin-1 beta (IL-1β) expressions. […]"}, "TNF-α mRNA": {"test_system": "TNF-α mRNA", "assay": "Hyperosmotic stress-induced TNF-α gene expression in rabbit corneal epithelial cells (qPCR)", "type": "cell-based", "details": "20 μM peptide 6 h, then hyperosmotic medium (463 mOsM) 3 h, solvent 12.8-fold", "protocol": "as §1, §2"}}, "note": "Ends that are not written are not given here.", "data": [{"substance": "NH2-Ser-Ile-Gly-Ala-Glu-Gln-COOH (SIGAEQ; not fully specified (N-terminus, C-terminus); printed as NH2-Ser-Ile-Gly-Ala-Glu-Gln-COOH) [6-mer Li]", "values": [{"measurement": "survivin mRNA induction compared to solvent control", "setting": "survivin mRNA", "result": 2.1, "unit": "fold"}, {"measurement": "Number of TUNEL-positive cells in retina", "setting": "[1]", "result": "9.8 ± 1.4 /200 μm"}, {"measurement": "I/R-induced retinal cell apoptosis (TUNEL staining), in words", "setting": "[1]", "result": "reduced the retinal cell apoptosis induced by I/R"}]}, {"substance": "NH2-The-Leu-Gly-Ala-Glu-Gln-COOH (TLGAEQ; not fully specified (N-terminus, C-terminus); printed as NH2-The-Leu-Gly-Ala-Glu-Gln-COOH) [6-mer St]", "values": [{"measurement": "survivin mRNA induction, in words", "setting": "survivin mRNA", "result": "severely impaired the survivin mRNA induction"}, {"measurement": "Number of TUNEL-positive cells in retina", "setting": "[1]", "result": "21.8 ± 1.8 /200 μm"}, {"measurement": "I/R-induced retinal cell apoptosis (TUNEL staining), in words", "setting": "[1]", "result": "had no such effect"}, {"measurement": "therapeutic effect on corneal fluorescein staining, in words", "setting": "[2]", "result": "had no therapeutic effect"}]}, {"substance": "NH2-Ser-Leu-Gly-Ala-Glu-Asn-COOH (SLGAEN; not fully specified (N-terminus, C-terminus); printed as NH2-Ser-Leu-Gly-Ala-Glu-Asn-COOH) [6-mer Qn]", "values": [{"measurement": "survivin mRNA induction compared to solvent control", "setting": "survivin mRNA", "result": 2.1, "unit": "fold"}, {"measurement": "Number of TUNEL-positive cells in retina", "setting": "[1]", "result": "12.5 ± 0.89 /200 μm"}, {"measurement": "I/R-induced retinal cell apoptosis (TUNEL staining), in words", "setting": "[1]", "result": "reduced the retinal cell apoptosis induced by I/R"}]}, {"substance": "NH2-Ser-Leu-Val-Ala-Glu-Gln-COOH (SLVAEQ; not fully specified (N-terminus, C-terminus); printed as NH2-Ser-Leu-Val-Ala-Glu-Gln-COOH) [6-mer Gv]", "values": [{"measurement": "survivin mRNA induction compared to solvent control", "setting": "survivin mRNA", "result": 2.3, "unit": "fold"}, {"measurement": "Number of TUNEL-positive cells in retina", "setting": "[1]", "result": "10.4 ± 1.4 /200 μm"}, {"measurement": "I/R-induced retinal cell apoptosis (TUNEL staining), in words", "setting": "[1]", "result": "reduced the retinal cell apoptosis induced by I/R"}, {"measurement": "mRNA expression of IL-1β, in words", "setting": "IL-1β mRNA", "result": "apparently repressed the mRNA expression of TNF-α and IL-1β"}, {"measurement": "mRNA expression of TNF-α, in words", "setting": "TNF-α mRNA", "result": "apparently repressed the mRNA expression of TNF-α and IL-1β"}]}, {"substance": "NH2-Ser-Leu-Gly-(D-Ala)-Glu-Gln-COOH (SLGAEQ; HELM PEPTIDE1{S.L.G.[dA].E.Q}$$$$V2.0; SMILES CC(C)C[C@H](NC(=O)[C@@H](N)CO)C(=O)NCC(=O)N[C@H](C)C(=O)N[C@@H](CCC(=O)O)C(=O)N[C@@H](CCC(N)=O)C(=O)O) [6-mer dA]", "values": [{"measurement": "survivin mRNA induction, in words", "setting": "survivin mRNA", "result": "hamper the survivin gene induction activity significantly"}, {"measurement": "therapeutic effect on corneal fluorescein staining, in words", "setting": "[2]", "result": "had no therapeutic effect"}]}, {"substance": "NH2-Ala-Leu-Gly-Ala-Glu-Gln-COOH (ALGAEQ; not fully specified (N-terminus, C-terminus); printed as NH2-Ala-Leu-Gly-Ala-Glu-Gln-COOH) [6-mer Sa]", "values": [{"measurement": "survivin mRNA induction compared to solvent control", "setting": "survivin mRNA", "result": 1.7, "unit": "fold"}, {"measurement": "Number of TUNEL-positive cells in retina", "setting": "[1]", "result": "12.6 ± 1.1 /200 μm"}, {"measurement": "I/R-induced retinal cell apoptosis (TUNEL staining), in words", "setting": "[1]", "result": "reduced the retinal cell apoptosis induced by I/R"}, {"measurement": "mRNA expression of IL-1β, in words", "setting": "IL-1β mRNA", "result": "apparently repressed the mRNA expression of TNF-α and IL-1β"}, {"measurement": "mRNA expression of TNF-α, in words", "setting": "TNF-α mRNA", "result": "apparently repressed the mRNA expression of TNF-α and IL-1β"}]}]}
